# Source: patent US9440938B2, “Sulfonamide derivative having PGD2 receptor antagonistic activity” (SHIONOGI & CO., LTD., priority 2005, dated 2016)
# Where two headings read alike, the source gives them in different places.
# How the values were obtained:
# DP receptor [1] = target: T1, DP receptor (Homo sapiens, UniProt Q13258); assay: Receptor binding assay, [3H]-PGD2, platelet membrane; details: [3H]-PGD2, human platelet membrane
# T1 construct: endogenous in cells; host or cells: washed platelets from peripheral blood of a healthy volunteer
# T1 sequence (Q13258 1-359): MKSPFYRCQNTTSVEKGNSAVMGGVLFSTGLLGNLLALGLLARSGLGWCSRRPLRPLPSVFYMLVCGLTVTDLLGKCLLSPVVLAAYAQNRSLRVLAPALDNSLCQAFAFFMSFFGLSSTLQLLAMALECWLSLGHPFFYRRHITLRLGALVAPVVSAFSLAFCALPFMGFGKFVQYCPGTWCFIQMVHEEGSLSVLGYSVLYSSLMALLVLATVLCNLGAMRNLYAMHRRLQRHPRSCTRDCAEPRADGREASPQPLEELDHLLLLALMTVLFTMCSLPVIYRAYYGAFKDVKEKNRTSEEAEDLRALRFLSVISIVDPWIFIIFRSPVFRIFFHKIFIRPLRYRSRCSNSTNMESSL
# Procedure: 2) Receptor Binding Assay
# A prepared WP was homogenated and a membrane fraction was collected with high-speed centrifugation. A compound of the present invention or a reference compound A (No. IC-73 in WO 2003/097598) was added to the plate and [^3H]-PGD2 was also added. A platelet membrane, a protein concentration is 2 mg/mL, was added and mixed in the plate, and placed on ice for 2 hours. The reaction solution was transferred to a low protein-adsorptive filter and washed with a wash solution eight times using a cell harvester. After the final washing, water was removed sufficiently, and scintillator was added. DP inhibitory activity was investigated by measuring [^3H] by using Micro Beta.
# DP receptor [2] = target: T1, DP receptor; assay: cAMP assay with washed platelet (DP inhibitory activity in vitro); type: cell-based; details: read-out: IC50 (50% DP-inhibitory concentration in the cAMP assay); washed human platelets, 100 nM PGD2, cAMP by HTRF
# Procedure: 1) Preparation of Platelet and a Method of cAMP Assay
# 30 mL of peripheral blood was collected from a healthy volunteer using a syringe containing one ninth amount of 3.8% sodium citrate. After being centrifuged at 180 g for 10 minutes at room temperature, a supernatant was collected and used as Platelet Rich Plasma (PRP). The resulting PRP was washed with wash buffer and centrifuged three times (Washed Platelet: WP) and platelets were counted by a microcell counter. WP was added to a plate in amount of 1.5×10^8/assay and the plate was treated with 3-isobutyl-1-methylxanthin (IBMX; 0.5 mM) for 5 minutes. A reaction was initiated by adding 100 nM of PGD2 5 min after an addition of a test compound. The reaction was terminated with an addition of 1N hydrochloric acid after 2 minutes and the cells were destructed using 12% triton X-100. An amount of cAMP in the supernatant was assayed by Homogeneous Trangient Fluorescence (HTRF)
# OVA asthma model of rat = assay: Test using OVA asthma model of rat (airway hyperresponsiveness, infiltration of inflammatory cells, mucus-secretion); type: in vivo, Brown Norway (BN) Rats; details: po, 72 h
# Procedure: Test Using OVA Asthma Model of Rat
# Brown Norway (BN) Rats were sensitized by i.p. administration of 0.1 mg/mL of ovalbumin (OVA) and 1 mg of aluminum hydroxide gel. A solution of 1% OVA was aerosolized by ultrasonic nebulizer (NE-U17) and the rats were subjected to inhalation exposure of the aerosol for 30 minutes in an exposing chamber 12, 19, 26 and 33 days after the sensitization. One hour before the 4th exposure of the antigen, compounds of the present invention were administered in a dose of 10 mg/kg p.o. once a day for three days consecutively. In a control group, 0.5% of methyl cellulose was administered in place of the compound of the present invention.
# Under pentobarbital anesthesia (80 mg/kg, i.p.), acetylcholine (3.9, 7.8, 15.6, 31.3, 62.5, 125, 250 and 500 μg/kg) was injected to jugular vein of the rats successively from a lower dose at intervals of 5 minutes three days after the fourth exposure to the antigen, and immediate contractile reaction of airways (an increase of insufflation pressure) was measured by a modified method of Konnzett & Ririssler. Inhibition rate of airway hyperresponsiveness against the control group was calculated based on area under the curve (AUC) obtained from concentration-response curve of acetylcholine.
# After the measurement of increased hyperresponsive airway was completed, bronchoalveoli of the rats were washed with 5 mL of saline three times. Total cell number in the washings was counted by a hemacytometer under light microscope, and inhibition rates of infiltration of inflammatory cells against the control group were calculated. Further, mucin in the airway lavage fluid was measured by ELISA method using jacalin, a mucin-binding lectin, and the inhibition rates of mucus-secretion against the control group were calculated.
structure (smiles),measurement,setting,value
CC(C)Oc1ccc(S(=O)(=O)N2CCN(c3ccc(C(N)=O)c(OCC(=O)O)c3)CC2)cc1 [II-81],Ki,DP receptor [1],2.6 µM
same,IC50,DP receptor [2],1.8 µM
CC(C)Oc1ccc(S(=O)(=O)N2CCC(Oc3ccccc3/C=C/C(=O)O)CC2)cc1 [Compound I-7],IC50,DP receptor [2],2.4 µM
COc1cccc(OC2CCN(S(=O)(=O)c3ccc(OC(C)C)cc3)CC2)c1CCC(=O)O [Compound I-12],IC50,DP receptor [2],4.2 µM
CC(C)Oc1ccc(S(=O)(=O)N2CCN(c3ccc([N+](=O)[O-])c(NCC(=O)O)c3)CC2)cc1 [II-135],Ki,DP receptor [1],0.49 µM
same,IC50,DP receptor [2],0.13 µM
Cc1nnc(-c2ccc(N3CCN(S(=O)(=O)c4ccc(OC(C)C)cc4)CC3)cc2OCC(=O)O)s1 [II-75],Ki,DP receptor [1],0.58 µM
same,IC50,DP receptor [2],0.58 µM
CC(C)Oc1ccc(S(=O)(=O)N2CCN(c3ccc(-c4nncs4)c(OCC(=O)O)c3)CC2)cc1 [II-88],Ki,DP receptor [1],1.5 µM
same,IC50,DP receptor [2],0.23 µM
CC(C)Oc1ccc(S(=O)(=O)N2CCN(c3ccc(C(=O)Nc4nccs4)c(OCC(=O)O)c3)CC2)cc1 [II-108],Ki,DP receptor [1],13 µM
same,IC50,DP receptor [2],0.13 µM
CC(C)Oc1ccc(S(=O)(=O)N2CCN(c3ccc(C(=O)Nc4cc(C5CC5)n[nH]4)c(OCC(=O)O)c3)CC2)cc1 [II-112],Ki,DP receptor [1],9.3 µM
same,IC50,DP receptor [2],0.12 µM
CC(C)Oc1ccc(S(=O)(=O)N2CCC(Oc3ccc(F)cc3CCC(=O)O)CC2)cc1 [Compound I-18],IC50,DP receptor [2],1.6 µM
CC(C)Oc1ccc(S(=O)(=O)N2CCN(c3ccc(NC(=O)c4ccccc4)c(OCC(=O)O)c3)CC2)cc1 [II-28],Ki,DP receptor [1],3.8 µM
same,IC50,DP receptor [2],2.5 µM
CC(C)Oc1ccc(S(=O)(=O)N2CCN(c3ccc(C(=O)NCc4ccccn4)c(OCC(=O)O)c3)CC2)cc1 [II-100],Ki,DP receptor [1],12.8 µM
same,IC50,DP receptor [2],2.4 µM
CC(C)Oc1ccc(S(=O)(=O)N2CCN(c3cccc(OCC(=O)O)n3)CC2)cc1 [II-11],IC50,DP receptor [2],2.3 µM
CC(C)Oc1ccc(S(=O)(=O)N2CCN(c3ccc(-c4ccccc4)c(OCC(=O)O)c3)CC2)cc1 [II-53],IC50,DP receptor [2],2.3 µM
CC(C)Oc1ccc(S(=O)(=O)N2CC=C(c3ccc(Cl)c(OCC(=O)O)c3)CC2)cc1 [Compound I-30],IC50,DP receptor [2],0.51 µM
CC(C)Oc1ccc(S(=O)(=O)N2CCN(c3ccc(-c4ncco4)c(OCC(=O)O)c3)CC2)cn1 [II-94],Ki,DP receptor [1],1.7 µM
same,IC50,DP receptor [2],2 µM
CC(C)Oc1ccc(S(=O)(=O)N2CCN(c3cc(F)cc(OCC(=O)O)c3)CC2)cc1 [II-25],Ki,DP receptor [1],1.6 µM
same,IC50,DP receptor [2],0.67 µM
CC(C)Oc1ccc(S(=O)(=O)N2CCN(c3cc(OCC(=O)O)ccc3Cl)CC2)cc1 [II-69],IC50,DP receptor [2],1.4 µM
CC(C)Oc1ccc(S(=O)(=O)N2CCN(c3ccc(C(=O)NC4CC4)c(OCC(=O)O)c3)CC2)cc1 [II-89],Ki,DP receptor [1],20 µM
same,IC50,DP receptor [2],2.1 µM
CC(C)Oc1ccc(S(=O)(=O)N2CCN(c3ccc(NC(=O)c4cccnc4)c(OCC(=O)O)c3)CC2)cc1 [II-48],IC50,DP receptor [2],4.6 µM
CC(C)Oc1ccc(S(=O)(=O)N2CCN(c3ccc4ncn(CC(=O)O)c4c3)CC2)cc1 [II-134],Ki,DP receptor [1],8.5 µM
same,IC50,DP receptor [2],2.7 µM
CC(C)NC(=O)c1ccc(N2CCN(S(=O)(=O)c3ccc(OC(C)C)cc3)CC2)cc1OCC(=O)O [II-63],inhibition in vivo at 10 mg/kg,"OVA asthma model of rat; BN rats, 10 mg/kg p.o. once a day for three days, mucin in airway lavage fluid by ELISA against control group, read-out: inhibition rate (%) mucus-secretion",79%
same,inhibition in vivo at 10 mg/kg,"OVA asthma model of rat; BN rats, 10 mg/kg p.o. once a day for three days, total cell number in bronchoalveolar washings against control group, read-out: inhibition rate (%) infiltration of inflammatory cells",59%
same,inhibition in vivo at 10 mg/kg,OVA asthma model of rat; read-out: inhibition rate (%) airway hyperresponsiveness,41%
Cc1nnc(-c2ccc(N3CCN(S(=O)(=O)c4ccc(OC(C)C)cc4)CC3)cc2OCC(=O)O)o1 [II-61],Ki,DP receptor [1],1.4 µM
same,IC50,DP receptor [2],2.1 µM
COCC#Cc1cc(OCC(=O)O)cc(N2CCN(S(=O)(=O)c3ccc(OC(C)C)cc3)CC2)c1 [II-37],IC50,DP receptor [2],1.5 µM
Cc1cc(C(=O)Nc2ccc(N3CCN(S(=O)(=O)c4ccc(OC(C)C)cc4)CC3)cc2OCC(=O)O)no1 [II-60],Ki,DP receptor [1],2.6 µM
same,IC50,DP receptor [2],0.88 µM
CC(C)Oc1ccc(S(=O)(=O)N2CCN(c3ccc(C(=O)Nc4nncs4)c(OCC(=O)O)c3)CC2)cc1 [II-110],Ki,DP receptor [1],9.8 µM
same,IC50,DP receptor [2],0.36 µM
CC(C)Oc1ccc(S(=O)(=O)N2CCN(c3ccc(C(=O)Nc4ccn(C)n4)c(OCC(=O)O)c3)CC2)cc1 [II-111],Ki,DP receptor [1],36 µM
same,IC50,DP receptor [2],0.7 µM
CC(C)Oc1ccc(S(=O)(=O)N2CCC(c3ccc(Cl)c(OCC(=O)O)c3)CC2)cc1 [Compound I-31],Ki,DP receptor [1],3.6 µM
same,IC50,DP receptor [2],0.16 µM
CC(C)Oc1ccc(S(=O)(=O)N2CCN(c3cc(OCC(=O)O)cc(-c4cccs4)c3)CC2)cc1 [II-51],Ki,DP receptor [1],0.52 µM
same,IC50,DP receptor [2],0.64 µM
CC(C)Oc1ccc(S(=O)(=O)N2CCN(c3ccc(C(=O)NCC4CC4)c(OCC(=O)O)c3)CC2)cc1 [II-105],Ki,DP receptor [1],16 µM
same,IC50,DP receptor [2],1.5 µM
CC(C)Oc1ccc(S(=O)(=O)N2CCN(c3ccc(NC(=O)c4ccccn4)c(OCC(=O)O)c3)CC2)cc1 [II-47],Ki,DP receptor [1],2.2 µM
same,IC50,DP receptor [2],3.1 µM
CC(C)Oc1ccc(S(=O)(=O)N2CCN(c3ccc(C(=O)NCc4cccs4)c(OCC(=O)O)c3)CC2)cc1 [II-99],Ki,DP receptor [1],11 µM
same,IC50,DP receptor [2],0.59 µM
CC(C)OC(=O)Nc1ccc(N2CCN(S(=O)(=O)c3ccc(OC(C)C)cc3)CC2)cc1OCC(=O)O [II-67],IC50,DP receptor [2],1.7 µM
CC(C)Oc1ccc(S(=O)(=O)N2CCN(c3cc(F)c(F)c(OCC(=O)O)c3)CC2)cn1 [II-55],IC50,DP receptor [2],3 µM
COC(=O)Nc1ccc(N2CCN(S(=O)(=O)c3ccc(OC(C)C)cc3)CC2)cc1OCC(=O)O [II-59],IC50,DP receptor [2],4.3 µM
CC(C)Oc1ccc(S(=O)(=O)N2CCN(c3ccc(NC(=O)c4ccno4)c(OCC(=O)O)c3)CC2)cc1 [II-58],IC50,DP receptor [2],3.5 µM
CC(C)Oc1ccc(S(=O)(=O)N2CCN(c3ccc(OCc4ccoc4)c(OCC(=O)O)c3)CC2)cc1 [II-77],IC50,DP receptor [2],3.6 µM
CC(C)Oc1ccc(S(=O)(=O)N2CCN(c3ccc(Cl)c(/C=C/C(=O)O)c3)CC2)cc1 [II-18],IC50,DP receptor [2],4.9 µM
CC(C)Oc1ccc(S(=O)(=O)N2CCN(c3ccc(OCc4ccccc4)c(OCC(=O)O)c3)CC2)cc1 [II-71],IC50,DP receptor [2],4.1 µM
Cc1ccc(N2CCN(S(=O)(=O)c3ccc(OC(C)C)cc3)CC2)cc1OCC(=O)O [II-8],IC50,DP receptor [2],4.6 µM
Cc1cc(OCC(=O)O)cc(N2CCN(S(=O)(=O)c3ccc(OC(C)C)cc3)CC2)c1 [II-41],IC50,DP receptor [2],3.5 µM
CC(C)Oc1ccc(S(=O)(=O)N2CCN(c3cc(OCC(=O)O)cc(-c4ccccc4)c3)CC2)cc1 [II-57],IC50,DP receptor [2],1.2 µM
CC(C)Oc1ccc(S(=O)(=O)N2CCN(c3ccc(Cl)c(CC(=O)O)c3)CC2)cc1 [II-20],IC50,DP receptor [2],4.3 µM
CC(C)NC(=O)Nc1ccc(N2CCN(S(=O)(=O)c3ccc(OC(C)C)cc3)CC2)cc1OCC(=O)O [II-68],IC50,DP receptor [2],17 µM
COc1cccc(OC2CCN(S(=O)(=O)c3ccc(OC(C)C)cc3)CC2)c1/C=C/C(=O)O [Compound I-8],IC50,DP receptor [2],2.1 µM
CC(C)Oc1ccc(S(=O)(=O)N2CCC(Oc3ccccc3CCC(=O)O)CC2)cc1 [Compound I-11],IC50,DP receptor [2],3 µM
CC(C)Oc1ccc(S(=O)(=O)N2CCN(c3ccc(Br)c(OCC(=O)O)n3)CC2)cc1 [II-90],IC50,DP receptor [2],0.59 µM
CC(=O)c1ccc(N2CCN(S(=O)(=O)c3ccc(OC(C)C)cc3)CC2)cc1OCC(=O)O [II-91],IC50,DP receptor [2],1.3 µM
CC(C)Oc1ccc(S(=O)(=O)N2CCN(c3ccc(Oc4ccccc4)c(OCC(=O)O)c3)CC2)cc1 [II-79],IC50,DP receptor [2],2.3 µM
